Measurements reported in patent US11584712B2, “Alkylamine-substituted perthiocarbamates as dual precursors to hydropersulfide and carbonyl sulfide” (The Johns Hopkins University, priority 2020, dated 2023).

Columns and labels:
[1] = RSSH generation and quantification of cyclic ureas by UPLC-MS with HPE-IAM or NEM trap; type: physicochemical
Experimental: Precursor 1a was dissolved in DMSO to afford a 1 mM stock solution. Similarly, HPE-IAM and N-ethyl maleimide (NEM) were independently dissolved in DMSO to obtain 50 mM stock solutions. To a 20 mL scintillation vial, HPE-IAM or NEM (30 μL, 50 mM) was added in pH 7.4 ammonium bicarbonate buffer (2.94 mL) containing the DTPA (100 μM). The resulting solution was pre-incubated at 37° C. for 10 min. Precursor 1a (30 μL, 1 mM) was then added into the mixture and incubated for 15 min at 37° C. An aliquot of the reaction mixture (500 μL) was withdrawn, 4-hydroxyphenylacetamide (10 μM) was added as internal standard, and analyzed using UPLC-MS as follows: Mobile phase: 0-1 min 90% water+0% ACN+10% formic acid (0.1%); 1-7.5 min gradient up to 10% water+80% ACN+10% formic acid (0.1%); 7.5-8.4 min 10% water+80% ACN+10% formic acid (0.1%); 8.4-8.5 min gradient up to 90% water+0% ACN+10% formic acid (0.1%), 8.5-10 min 90% water+0% ACN+10% formic acid (0.1%). Flow rate=0.3 mL/min. […] These studies were conducted at least in triplicate and representative spectra are presented.
Precursors 7a-d (10 μM) were independently incubated with HPE-IAM (500 μM) in pH 7.4 ammonium bicarbonate buffer (50 mM) containing DTPA (100 μM) at 37° C. The reaction mixture (500 μL) was analyzed using UPLC-MS. To quantify 2a-d generated from these precursors, a calibration curve of each individual cyclic urea with known concentrations was independently generated.
Precursor 1a was dissolved in DMSO to afford a 1 mM stock solution. Similarly, HPE-IAM was dissolved in DMSO to obtain a 50 mM stock solution. To a 20 mL scintillation vial, HPE-IAM (30 μL, 50 mM) was added in pH 7.4 ammonium bicarbonate buffer (2.94 mL) containing the DTPA (100 μM). The resulting solution was pre-incubated at 37° C. for 10 min. Precursor 1a (30 μL, 1 mM) was then added into the mixture and incubated for 15 min at 37° C. An aliquot of the reaction mixture (500 μL) was withdrawn and analyzed using UPLC-MS as follows: Mobile phase: 0-1 min 90% water+0% ACN+10% formic acid (0.1%); 1-7.5 min gradient up to 10% water+80% ACN+10% formic acid (0.1%); 7.5-8.4 min 10% water+80% ACN+10% formic acid (0.1%); 8.4-8.5 min gradient up to 90% water+0% ACN+10% formic acid (0.1%), 8.5-10 min 90% water+0% ACN+10% formic acid (0.1%). Flow rate=0.3 mL/min. The mass signals for product of RSSH trapping with HPE-IAM were obtained via deconvolution using MassLynx 4.1 software. These studies were conducted at least in triplicate and representative spectra are presented.
Precursors 7a-d (10 μM) were independently incubated with HPE-IAM (500 μM) in pH 7.4 ammonium bicarbonate buffer (50 mM) containing DTPA (100 μM) at 37° C. This reaction mixture was analyzed by UPLC-MS as follows: Mobile phase: 0-1 min 90% water+0% ACN+10% formic acid (0.1%); 1-7.5 min gradient up to 10% water+80% ACN+10% formic acid (0.1%); 7.5-8.4 min 10% water+80% ACN+10% formic acid (0.1%); 8.4-8.5 min gradient up to 90% water+0% ACN+10% formic acid (0.1%), 8.5-10 min 90% water+0% ACN+10% formic acid (0.1%). Flow rate=0.3 mL/min. To quantify 2a-d generated from these precursors, a calibration curve of each individual cyclic urea with known concentrations was independently generated.

[2] = Kinetics of RSSH release from precursors monitored by HPLC (HPE-IAM trapping); type: physicochemical; conditions: precursor 100 μM, HPE-IAM 5 mM, pH 7.4 phosphate buffer with DTPA, 37° C.
Experimental: (§1) Precursors 7a-d were dissolved in DMSO to afford 10 mM stock solutions. HPE-IAM was dissolved in DMSO to obtain a 100 mM stock solution. […] This solution was pre-incubated for 10 min at 37° C. and then precursor 7a-d (30 μL, 10 mM) were independently added into the mixture. The resulting solution was incubated at 37° C. At different time points, an aliquot of 200 μL was taken and quenched with 200 μL […] solution. These samples were stored at 0° C. until HPLC analysis was performed. The sample (20 μL) was injected into a high-performance liquid chromatography (HPLC) equipped with Phenomenex C-18 reverse phase column (250 mm×4.6 mm, 5 μm). HPLC Method: mobile phase A (H2O) and mobile phase B (ACN), flow rate: 1 mL/min, run time: 20 min, the gradient elution method: 10% to 40% B from 0 to 12 min, 40% to 80% B from 12 to 20 min. The elution was monitored by a UV detector at 275 nm. A calibration curve was generated using RSS-HPE-AM 9 to quantify RSSH generation from 7a-d.
as §1, with “by a variable UV detector” for “by a UV detector”

[3] = RSSH generation in the presence of N-acetyl cysteine by UPLC-MS; type: physicochemical; conditions: precursor 100 μM, NAC 500 μM, pH 7.4 ammonium bicarbonate buffer with DTPA, 37° C.
Experimental: […] The resulting mixture was incubated at 37° C. An aliquot (200 μL) of reaction mixture was withdrawn at specified time points and quenched with 1% formic acid (200 μL). 3-Amino-benzoic acid (50 μM) was added to each sample as internal standard prior to UPLC-MS analysis. To quantify 2a-d generated from these precursors, a calibration curve for each individual cyclic urea with known concentrations was independently generated.
[…] The resulting mixture was incubated at 37° C. An aliquot ([…]) of reaction mixture was withdrawn at specified time points and quenched with 1% formic acid (200 μL). 3-amino-benzoic acid (50 μM) was added to each sample as internal standard prior to UPLC-MS analysis. To quantify 2a-d generated from these precursors, the calibration curve of each individual cyclic urea with known concentrations was independently generated.

[4] = COS release using membrane inlet mass spectrometry (MIMS); type: physicochemical; conditions: precursor 50 μM, NAC 0.25 mM (5 equiv.), pH 7.4 phosphate buffer saline with DTPA, 37° C.
Experimental: (§2) COS was analyzed using a Hiden HPR-40 MIMS system with a sample cell and membrane probe that have been optimized to detect gases dissolved in aqueous solution as described previously. Cline et al., 2011. A stock solution of N-acetyl-cysteine (25 mM) was prepared in DI water. RSSH precursor stock solutions (5 mM) were prepared in DMSO. These solutions were degassed by purging with nitrogen for 10 min before COS release analysis. Typically, 20 mL phosphate buffer solution (10 mM) was added to the sample cell, degassed and purged with a continuous flow of argon for 15 min. N-acetyl cysteine (200 μL, 25 mM) and RSSH precursor (200 μL, 5 mM) were then injected using a gas tight syringe and ion current at m/z 60 (COS^+) were collected for 2 h (source pressure was approximately 1×10^−7 to 5×10^−7 Torr).
as §2, with “(COS*)” for “(COS^+)”

H9c2 cells = assay: Cytotoxicity study with SYTOX Green nucleic acid stain; type: cell-based, rat; conditions: 24 h exposure, 0-150 μM
Experimental: H9c2(2-1) embryonic rat heart myoblasts were obtained from the American Type Culture Collection. Cells were grown in Dulbecco's […] (DMEM), supplemented with fetal bovine serum (FBS) 10%, penicillin 100 U/mL and streptomycin 100 μg/mL. They were propagated in T75-flasks, split before reaching 70-80% confluence (usually every day or every second day), and used within 11 passages. Cells were passaged to tissue culture treated 96-well microtiter plates at the specified density in 180 μL volumes and incubated for 24 h.
Cells were seeded at a density of 1×10^4 cells/well. […] Then, 100 μL of media containing 3 μM SYTOX™ Green nucleic acid stain (Invitrogen) was added and the cells were incubated for 2 h before fluorescence readings were obtained at 485Ex/538Em (Step 1). Finally, an additional 100 μL of media containing 3 μM SYTOX™ and 0.2% Triton X-100 was added in order to permeabilize all cells and incubated for 1 h before fluorescence values measured (Step 2). The relative % cells surviving was calculated as a 100% minus the ratio of the fluorescence value of Step 1 over Step 2 (% cells surviving=100%−(FL538 (Step 1)/FL538(Step 2)).
Cells were seeded at a density of 1×10^4 cells/well. […] The relative % cells surviving was calculated as a 100% minus the ratio of the fluorescence value of Step 1 over Step 2 (% cells surviving=100%−(FL538 (Step 1)/FL538(Step 2)).

CNCCN(C)C(=O)SSCC(NC(C)=O)C(=O)OC (stereo not shown) [Precursor 1a, 2-(((2-Acetamido-3-methoxy-3-oxopropyl)disulfannecarbonyl)(methyl)amino)-N-methylethan-1-aminium]
yield of byproduct 2a ([1]; NEM 50 equiv., pH 7.4 buffer): 74% | yield of cyclic urea byproduct ([1]; precursor 10 μM, HPE-IAM 500 μM (50 equiv.), pH 7.4 ammonium bicarbonate buffer, 37° C.): 52% | byproduct 2a formation ([1]; precursor 10 μM, NEM 500 μM, pH 7.4 ammonium bicarbonate buffer, 37° C., 15 min): 7.4 ± 0.2 µM

COC(=O)C(NC(C)=O)C(C)(C)SSC(=O)N(C)CCCN (stereo not shown) [Precursor 7d, 3-(((3-acetamido-4-methoxy-2-methyl-4-oxobutan-2-yl)disulfannecarbonyl)(methyl)amino)propan-1-aminium]
Hydropersulfide Yield (%) [2]: 82 ± 1% | Byproduct % (yield of cyclic urea 2a-d) [3]: 5.9 ± 0.4% | COS release (m/z=60 signal) [4]: produce mainly COS

CN1CCNC1=O [byproduct 2b, 1-methylimidazolidin-2-one]
cytotoxicity toward H9c2 cells (H9c2 cells): no toxicity
